Test results taken from publication PMC6891695, “Evaluation of Antifouling Potential and Ecotoxicity of Secondary Metabolites Derived from Red Algae of the Genus Laurencia” (Marine Drugs, 2019).

Columns and labels:
HEK293 cell line = assay: HEK293 crystal violet assay (cell viability); type: cell-based, human; settings: for EC50: Homo sapiens, HEK293, Crystal violet assay, 48 h incubation; for cytotoxicity in crystal violet assay (in words): HEK293
Description: The RTL-W1 cell line, a non-transformed rainbow trout liver cell line that has already been used in environmental toxicity assays, was established from the normal liver of an adult rainbow trout by proteolytic dissociation of liver fragments. RTL-W1 cells were cultured in 75 cm^2 culture flasks (Orange Scientific, Braine l’Alleud, Belgium) at 20 °C in Leibovitz’s (L-15, Sigma-Aldrich, St. Louis, MO, USA) medium supplemented with 5% fetal bovine serum (FBS) and 1% L-glutamine in CO2-free incubator. For the cytotoxicity assays of the selected secondary metabolites, cells were seeded at 3 × 10^4 cells/well density in a 96-well tissue culture plate (Orange Scientific Braine l’Alleud, Belgium) in 100 μL culture medium/well for 2 days before the assays. Three different cytotoxicity protocols were used: 1) The alamar blue/resazurin fluorometric/colorimetric cell viability assay to assess the metabolic capacity and mitochondrial function; 2) the crystal violet cell viability assay for indirect quantification of cell death; and 3) the neutral red cell proliferation assay for lysosomal activity. Two days after seeding the cells, cultures were incubated with various concentrations of selected secondary metabolites at 20 °C for 48 h before cell viability was assessed. […] For the alamar blue/resazurin fluorometric/colorimetric cell viability assay, 100 μL of 3 μg/100 μL Resazurin sodium salt (Sigma-Aldrich, St. Louis, MO, USA) in incubation medium was added on each well and incubated under sterile conditions at 20 °C for 4 h. For the crystal violet cell viability assay, after 48 h of incubation with each secondary metabolite, the culture medium was aspirated and cells were washed twice with sterile dd. H2O. The final wash was aspirated and 50 μL of 0.5% (w/v) crystal violet staining solution (20% methanol in dd. H2O) was added to each well followed by incubation for 20 min at room temperature on a bench rocker with a frequency of 20 oscillations per minute. The staining solution was then aspirated and the plate was washed four times with sterile dd. H2O and left to air-dry without its lid for 3 h at room temperature. Next, 200 μL of methanol was added to each well, and the plate was incubated with its lid on for 20 min at room temperature on a bench rocker with a frequency of 20 oscillations per minute. For the neutral red cell proliferation assay, after 48 h of incubation with each secondary metabolite, the culture medium was aspirated and cells were washed twice with phosphate-buffered saline (PBS, pH 7.4). Cells were then incubated with 100 μL of a 40 μg/mL neutral red staining solution in culture medium at 20 °C for 4 h followed by two washes with 150 μL of PBS. Then cells were incubated with 100 μL neutral red destain solution (50% ethanol, 49% dd. H2O, 1% glacial acetic acid) for 10 min on a bench rocker with a frequency of 80 oscillations per minute. Absorbance was read at 570 nm for alamar blue/resazurin and crystal violet and at 540 nm for neutral red using a Tecan infinite M200 Pro microplate reader. For each assay and each secondary metabolite, a minimum of four independent dose–response experiments with three replicates each were carried out. Calculations were carried out using detailed formulas (AbCam, Cambridge, UK, and results were analyzed with GraphPad Prism v.6.
HEK293 cells, a human embryotic kidney cell line, were obtained from ATCC (ATCC® CRL-1573™) at passage 37 of the original clone and used at passage 38. Cells were cultured routinely in 75 cm^2 culture flasks (Orange Scientific, Braine l’Alleud, Belgium) at 37 °C (5% CO2) in DMEM cell culture medium (Biosera) supplemented with 10% FBS (Sigma-Aldrich, St. Louis, MO, USA) and 1% L-glutamine. All assay conditions and protocols were identical to those described above for RTL-W1 cells with the exception that incubations were carried out at 37 °C. […]

Bacillus mojavensis = assay: Marine bacteria growth assay (disc diffusion); type: cell-based; settings: 24 h at 25 °C
Description: (§1) The ability of selected metabolites to inhibit the growth of bacteria was assessed using five strains of marine bacteria involved in marine surface biofilm formation, namely, B. subtilis, B. mojavensis, B. thuringiensis, P. putita and P. pseudoalcaligenes. Bacterial strains were maintained on Zobel marine agar plates. Sterile filter paper discs (4 mm) (GF/F; GE Healthcare, Little Chalfont, UK) were loaded with 40 μL samples of serial dilutions of each tested metabolite, allowed to dry at room temperature and then placed on agar plates (Zobel marine agar, pH = 7.3), which were seeded with a single strain of bacteria. Plates were incubated for 24 h at 25 °C. Marine bacteria growth inhibition was determined by measuring the zone of inhibition in mm around the filter paper disc. As a positive and negative control, standard discs were loaded with 40 μL of 0.5 M penicillin G (2 to 10 mm diameter) or solvent (40 μL methanol), respectively.

Bacillus subtilis = assay: Marine bacteria growth assay (disc diffusion); type: cell-based; settings: 24 h at 25 °C
Description: as §1

Bacillus thuringiensis = assay: Marine bacteria growth assay (disc diffusion); type: cell-based; settings: 24 h at 25 °C
Description: as §1

[1] = system: Pseudomonas pseudoalcaligenes; assay: Marine bacteria growth assay (disc diffusion); type: cell-based; settings: 24 h at 25 °C
Description: as §1

Pseudomonas putita = assay: Marine bacteria growth assay (disc diffusion); type: cell-based; settings: 24 h at 25 °C
Description: as §1

| Compound | EC50 (HEK293 cell line) | effect on bacterial growth (Bacillus mojavensis) | effect on bacterial growth (Bacillus subtilis) | effect on bacterial growth (Bacillus thuringiensis) | effect on bacterial growth [1] | effect on bacterial growth (Pseudomonas putita) | cytotoxicity in crystal violet assay (in words) (HEK293 cell line) |
| --- | --- | --- | --- | --- | --- | --- | --- |
| C=C(C1CCC(C)(O)C(Br)C1)C1C(Br)C2C(CCC2(C)O)C1(C)C (centres unmarked) [Compound 19, neorogioldiol] | 434 µM | none of these metabolites had any effect | none of these metabolites had any effect | none of these metabolites had any effect | none of these metabolites had any effect | none of these metabolites had any effect | – |
| CC1=C2CC[C@@](C)(Cl)[C@@H](Br)C[C@]2(C)[C@@H](C)[C@@H](Br)[C@@H]1O [Compound 9, perforenol] | 81.1 µM | none of these metabolites had any effect | none of these metabolites had any effect | none of these metabolites had any effect | none of these metabolites had any effect | none of these metabolites had any effect | mild cytotoxicity |
| CC(C)[C@@H]1CC=C[C@H]2[C@H]3[C@](C)(CC[C@]12CBr)[C@@H](Br)CC[C@@]3(C)O [Bromosphaerol, reference compound] | 97.1 µM | none of these metabolites had any effect | none of these metabolites had any effect | none of these metabolites had any effect | none of these metabolites had any effect | none of these metabolites had any effect | mild cytotoxicity |
| C=CC(C)(O)CC[C@@H]1C(=C)CC[C@@H](Br)[C@@]1(C)CCC1OC1(C)C (some centres unmarked) [Compound 18] | > 1000 µM | none of these metabolites had any effect | none of these metabolites had any effect | none of these metabolites had any effect | none of these metabolites had any effect | none of these metabolites had any effect | – |
